From patent publication US9163015B2, “Pyrazolopyridine, pyrarolopyrazine, pyrazolopyrimidine, pyrazolothiophene and pyrazolothiazole compounds as MGLUR4 allosteric potentiators, compositions, and methods of treating neurological dysfunction” (Vanderbilt University, priority 2010, dated 2015)

target: human mGluR4 (Homo sapiens (Human), UniProt Q14833); experiment: mGluR4 potentiation assay, CHO cells transfected with human mGluR4, Ca2+-sensitive fluorescent dye, EC20 agonist; assay type: cell-based; details: potentiation of mGluR4; table does not state human or rat receptor
Description: The disclosed compounds and compositions can be evaluated for their ability to act as a potentiator of metabotropic glutamate receptor activity, in particular mGluR4 activity, by any suitable known methodology known in the art. For example, Chinese Hamster Ovary (CHO) cells transfected with human mGluR4 or HEK cells co-transfected with rat mGluR4 and the G-protein regulated Inwardly Rectifying Potassium channel (GIRK) were plated in clear bottom assay plates for assay in a Hamamatsu FDSS Fluorometric Plate Reader. The cells were loaded with either a Ca2+-sensitive fluorescent dye or the thallium responsive dye and the plates were washed and placed into a suitable kinetic plate reader. For human mGluR4 assays, a fluorescence baseline was established for 3-5 seconds, the disclosed compounds were then added to the cells, and the response in cells was measured. Approximately two and a half minutes later, a concentration of mGluR4 orthosteric agonist (e.g. glutamate or L-AP4) eliciting approximately 20% (EC20) of the maximal agonist response was added to the cells, and the response was measured. Two minutes later, a concentration of mGluR4 agonist (e.g. glutamate or L-AP4) eliciting 80% (EC80) of the maximal agonist response was added to the cells, and the response was measured. For rat mGluR4/GIRK experiments, a baseline was established for approximately five seconds, disclosed compounds were added, and either an EC20 or EC80 concentration of agonist was added approximately two and one half minutes later.
The above described assay operated in two modes. In the first mode, a range of concentrations of the disclosed compounds are added to cells, followed by a single fixed concentration of agonist. If the compound acts as a potentiatior, an EC50 value for potentiation and a maximum extent of potentiation by the compound at this concentration of agonist is determined by non-linear curve fitting. If the compound acts as a noncompetitive antagonist, an IC50 value is determined by non-linear curve fitting. In the second mode, several fixed concentrations of the disclosed compounds are added to various wells on a plate, followed by a range in concentrations of agonist for each concentration of disclosed compound. The EC50 values for the agonist at each concentration of compound are determined by non-linear curve fitting. A decrease in the EC50 value of the agonist with increasing concentrations of the sample compound (a leftward shift of the agonist concentration-response curve) is an indication of the degree of mGluR4 potentiation at a given concentration of the sample compound. A decrease in the maximal response of the agonist with increasing concentrations of the sample compounds, with or without a rightward shift in agonist potency, is an indication of the degree of noncompetitive antagonism at mGluR4. The second mode also indicates whether the sample compounds also affect the maximum response to mGluR4 to agonists.

human mGluR4, sequence (Q14833 33-912): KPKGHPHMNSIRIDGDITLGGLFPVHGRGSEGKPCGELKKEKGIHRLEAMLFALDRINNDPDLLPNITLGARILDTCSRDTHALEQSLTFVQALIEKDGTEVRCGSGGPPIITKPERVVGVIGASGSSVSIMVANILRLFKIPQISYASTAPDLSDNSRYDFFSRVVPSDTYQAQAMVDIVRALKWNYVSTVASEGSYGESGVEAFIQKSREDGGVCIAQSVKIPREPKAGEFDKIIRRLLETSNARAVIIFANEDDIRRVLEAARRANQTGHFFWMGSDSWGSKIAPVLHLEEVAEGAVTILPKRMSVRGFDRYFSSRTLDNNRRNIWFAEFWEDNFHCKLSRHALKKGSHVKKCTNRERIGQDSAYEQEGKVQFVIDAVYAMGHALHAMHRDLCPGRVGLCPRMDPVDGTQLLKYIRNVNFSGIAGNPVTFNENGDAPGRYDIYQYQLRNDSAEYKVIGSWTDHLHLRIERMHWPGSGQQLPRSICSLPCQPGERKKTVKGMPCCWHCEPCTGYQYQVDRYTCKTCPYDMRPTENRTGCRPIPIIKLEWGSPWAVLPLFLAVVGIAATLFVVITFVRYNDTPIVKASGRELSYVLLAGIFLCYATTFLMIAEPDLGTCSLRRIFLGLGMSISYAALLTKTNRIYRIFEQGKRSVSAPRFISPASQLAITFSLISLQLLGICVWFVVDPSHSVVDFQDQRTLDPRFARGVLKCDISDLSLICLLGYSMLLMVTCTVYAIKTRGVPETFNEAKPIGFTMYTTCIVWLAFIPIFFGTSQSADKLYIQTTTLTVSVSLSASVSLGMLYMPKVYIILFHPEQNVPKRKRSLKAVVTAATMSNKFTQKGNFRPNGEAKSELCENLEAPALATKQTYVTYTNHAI

| Compound | EC50 [nM] |
| --- | --- |
| Fc1ccc(Cl)cc1Nc1n[nH]c2cccnc12 [Example 16, N-(5-chloro-2-fluorophenyl)-1H-pyrazolo[4,3-b]pyridin-3-amine] | 116 |
| Clc1ccc(Oc2ccc(Nc3n[nH]c4cccnc34)cc2Cl)cc1 [Example 81, N-(3-chloro-4-(4-chlorophenoxy)phenyl)-1H-pyrazolo[4,3-b]pyridin-3-amine] | 1540 |
| Cc1cc(C)cc(Nc2n[nH]c3cccnc23)c1 [Example 37, N-(3,5-dimethylphenyl)-1H-pyrazolo[4,3-b]pyridin-3-amine] | 177 |
| Clc1cc(Nc2n[nH]c3cccnc23)ccc1Oc1ncccn1 [Example 24, N-(3-chloro-4-(pyrimidin-2-yloxy)phenyl)-1H-pyrazolo[4,3-b]pyridin-3-amine] | 116 |
| Cc1ccc(NC(=O)Nc2n[nH]c3cccnc23)cc1C [Example 44, 1-(3,4-dimethylphenyl)-3-(1H-pyrazolo[4,3-b]pyridin-3-yl)urea] | 12800 |
| CN1C(=O)COc2cc(Nc3n[nH]c4cccnc34)ccc21 [Example 54, 7-((1H-pyrazolo[4,3-b]pyridin-3-yl)amino)-4-methyl-2H-benzo[b][1,4]oxazin-3(4H)-one] | > 10000 |
| CC(C)(C)c1cccc(Nc2n[nH]c3cccnc23)c1 [Example 61, N-(3-(tert-butyl)phenyl)-1H-pyrazolo[4,3-b]pyridin-3-amine] | 7930 |
| Clc1cc(Nc2n[nH]c3cccnc23)cnc1Oc1ccccn1 [Example 96, N-(5-chloro-6-(pyridin-2-yloxy)pyridin-3-yl)-1H-pyrazolo[4,3-b]pyridin-3-amine] | 3360 |
| Cc1cccc(Nc2n[nH]c3cccnc23)c1 [Example 18, N-(m-tolyl)-1H-pyrazolo[4,3-b]pyridin-3-amine] | 51.4 |
| COc1ccc(Nc2n[nH]c3cccnc23)cc1OC(F)F [Example 10, N-(3-(difluoromethoxy)-4-methoxyphenyl)-1H-pyrazolo[4,3-b]pyridin-3-amine] | 885 |
| CS(=O)(=O)c1ccc(Nc2n[nH]c3cccnc23)cc1F [Example 58, N-(3-fluoro-4-(methylsulfonyl)phenyl)-1H-pyrazolo[4,3-b]pyridin-3-amine] | 11500 |
| Clc1cncc(Nc2n[nH]c3cccnc23)c1 [Example 14, N-(5-chloropyridin-3-yl)-1H-pyrazolo[4,3-b]pyridin-3-amine] | 353 |
| Clc1cccc(Oc2ccc(Nc3n[nH]c4cccnc34)cc2Cl)n1 [Example 77, N-(3-chloro-4-((6-chloropyridin-2-yl)oxy)phenyl)-1H-pyrazolo[4,3-b]pyridin-3-amine] | 88 |
| Clc1cc(Nc2n[nH]c3cccnc23)ccc1Oc1ccccn1 [Example 52, N-(3-chloro-4-(pyridin-2-yloxy)phenyl)-1H-pyrazolo[4,3-b]pyridin-3-amine] | 112 |
| Cc1cc(Nc2n[nH]c3cccnc23)ccc1F [Example 82, N-(4-fluoro-3-methylphenyl)-1H-pyrazolo[4,3-b]pyridin-3-amine] | 68 |
| CN(c1cccc(Cl)c1)c1n[nH]c2cccnc12 [Example 86, N-(3-chlorophenyl)-N-methyl-1H-pyrazolo[4,3-b]pyridin-3-amine] | 8010 |
| CNc1ncc(Nc2n[nH]c3cccnc23)cc1Cl [Example 48, 3-chloro-N2-methyl-N5-(1H-pyrazolo[4,3-b]pyridin-3-yl)pyridine-2,5-diamine] | 6440 |
| Clc1cc(Nc2n[nH]c3cccnc23)ccc1OCc1ccccc1 [Example 87, N-(4-(benzyloxy)-3-chlorophenyl)-1H-pyrazolo[4,3-b]pyridin-3-amine] | 426 |
| COc1cc(Nc2n[nH]c3cccnc23)ccc1F [Example 11, N-(4-fluoro-3-methoxyphenyl)-1H-pyrazolo[4,3-b]pyridin-3-amine] | 1030 |
| Fc1c(Cl)cccc1Nc1n[nH]c2cccnc12 [Example 17, N-(3-chloro-2-fluorophenyl)-1H-pyrazolo[4,3-b]pyridin-3-amine] | 623 |
| c1ccc2ncc(Nc3n[nH]c4cccnc34)cc2c1 [Example 40, N-(1H-pyrazolo[4,3-b]pyridin-3-yl)quinolin-3-amine] | 961 |

| Compound | EC50 [nM] |
| --- | --- |
| COc1cc(Nc2n[nH]c3cccnc23)ccc1Cl [Example 6, N-(4-chloro-3-methoxyphenyl)-1H-pyrazolo[4,3-b]pyridin-3-amine] | 1110 |
| CN1C(=O)COc2ccc(Nc3n[nH]c4cccnc34)cc21 [Example 55, 6-((1H-pyrazolo[4,3-b]pyridin-3-yl)amino)-4-methyl-2H-benzo[b][1,4]oxazin-3(4H)-one] | 8140 |
| Fc1ccc(Nc2n[nH]c3scnc23)cc1Cl [Example 41, N-(3-chloro-4-fluorophenyl)-1H-pyrazolo[4,3-d]thiazol-3-amine] | 1180 |
| Fc1cc(Nc2n[nH]c3cccnc23)ccc1Oc1cc(C(F)(F)F)ccn1 [Example 75, N-(3-fluoro-4-((4-(trifluoromethyl)pyridin-2-yl)oxy)phenyl)-1H-pyrazolo[4,3-b]pyridin-3-amine] | 497 |
| Fc1cc(F)c(Nc2n[nH]c3cccnc23)cc1Cl [Example 79, N-(5-chloro-2,4-difluorophenyl)-1H-pyrazolo[4,3-b]pyridin-3-amine] | 342 |
| CC1Oc2ccc(Nc3n[nH]c4cccnc34)cc2N(C)C1=O (stereo not drawn) [Example 63, 6-((1H-pyrazolo[4,3-b]pyridin-3-yl)amino)-2,4-dimethyl-2H-benzo[b][1,4]oxazin-3(4H)-one] | 8340 |
| O=C(c1cccc(C(F)(F)F)c1)c1ccc(Nc2n[nH]c3cccnc23)cc1Cl [Example 38, (4-((1H-pyrazolo[4,3-b]pyridin-3-yl)amino)-2-chlorophenyl)(3-(trifluoromethyl)phenyl)methanone] | 3880 |
| Clc1cccc(CNc2n[nH]c3cccnc23)c1 [Example 50, N-(3-chlorobenzyl)-1H-pyrazolo[4,3-b]pyridin-3-amine] | 17300 |
| O=C(c1ccccc1)c1ccc(Nc2n[nH]c3cccnc23)cc1Cl [Example 64, (4-((1H-pyrazolo[4,3-b]pyridin-3-yl)amino)-2-chlorophenyl)(phenyl)methanone] | 351 |
| Clc1cc(Nc2n[nH]c3cccnc23)cnc1N1CCCC1 [Example 31, N-(5-chloro-6-(pyrrolidin-l-yl)pyridin-3-yl)-1H-pyrazolo[4,3-b]pyridin-3-amine] | 1550 |
| Clc1cc(Nc2n[nH]c3cccnc23)cnc1Cl [Example 47, N-(5,6-dichloropyridin-3-yl)-1H-pyrazolo[4,3-b]pyridin-3-amine] | 1020 |
| FC(F)(F)c1cccc(Nc2n[nH]c3cccnc23)c1 [Example 3, N-(3-(trifluoromethyl)phenyl)-1H-pyrazolo[4,3-b]pyridin-3-amine] | 145 |
| Fc1cc(Nc2n[nH]c3cccnc23)ccc1Oc1ncccn1 [Example 74, N-(3-fluoro-4-(pyrimidin-2-yloxy)phenyl)-1H-pyrazolo[4,3-b]pyridin-3-amine] | 2760 |
| Fc1ccc2[nH]nc(Nc3ccc(F)c(Cl)c3)c2n1 [Example 95, N-(3-chloro-4-fluorophenyl)-5-fluoro-1H-pyrazolo[4,3-b]pyridin-3-amine] | 312 |
| CC(C)C1CCC(Nc2n[nH]c3cccnc23)CC1 (stereo not drawn) [Example 29, N-(4-isopropylcyclohexyl)-1H-pyrazolo[4,3-b]pyridin-3-amine] | 5220 |
| c1cnc2c(Nc3nccs3)n[nH]c2c1 [Example 45, N-(1H-pyrazolo[4,3-b]pyridin-3-yl)thiazol-2-amine] | 10000 |
| Fc1ncc(Cl)cc1Nc1n[nH]c2cccnc12 [Example 34, N-(5-chloro-2-fluoropyridin-3-yl)-1H-pyrazolo[4,3-b]pyridin-3-amine] | 597 |
| Fc1c(Cl)cc(Nc2n[nH]c3cccnc23)cc1Cl [Example 43, N-(3,5-dichloro-4-fluorophenyl)-1H-pyrazolo[4,3-b]pyridin-3-amine] | 410 |
| Clc1cc(Nc2n[nH]c3cccnc23)ccc1Oc1cnccn1 [Example 66, N-(3-chloro-4-(pyrazin-2-yloxy)phenyl)-1H-pyrazolo[4,3-b]pyridin-3-amine] | 108 |
| Clc1cc(Cl)cc(Nc2n[nH]c3cccnc23)c1 [Example 69, N-(3,5-dichlorophenyl)-1H-pyrazolo[4,3-b]pyridin-3-amine] | 43 |
| Fc1cc(Cl)cc(Nc2n[nH]c3cccnc23)c1 [Example 70, N-(3-chloro-5-fluorophenyl)-1H-pyrazolo[4,3-b]pyridin-3-amine] | 32 |
